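Exposure lasted 48 hours, with cells grown in 96-well plates and compounds tested at five concentrations. GI50: concentration for 50% inhibition of growth. TGI marks complete inhibition of growth.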
Legend:
Assay in all cases: NCI-60 cell line screen, 48 h
K-562 leukemia = system: K-562 leukemia
SK-MEL-5 melanoma = system: SK-MEL-5 melanoma
A549 NSCLC = system: A549 NSCLC
SF-268 CNS = system: SF-268 CNS
TK-10 renal = system: TK-10 renal
NCI/ADR-RES ovarian = system: NCI/ADR-RES ovarian
SK-MEL-28 melanoma = system: SK-MEL-28 melanoma
CCRF-CEM leukemia = system: CCRF-CEM leukemia
RPMI-8226 leukemia = system: RPMI-8226 leukemia
HCC-2998 colon = system: HCC-2998 colon

| Compound | TGI (K-562 leukemia) [µM] | GI50 (SK-MEL-5 melanoma) [µM] | TGI (SK-MEL-5 melanoma) [µM] | GI50 (A549 NSCLC) [µM] | TGI (A549 NSCLC) [µM] | GI50 (SF-268 CNS) [µM] | TGI (SF-268 CNS) [µM] | GI50 (TK-10 renal) [µM] | TGI (TK-10 renal) [µM] | GI50 (NCI/ADR-RES ovarian) [µM] | TGI (NCI/ADR-RES ovarian) [µM] | GI50 (SK-MEL-28 melanoma) [µM] | TGI (SK-MEL-28 melanoma) [µM] | GI50 (CCRF-CEM leukemia) [µM] | TGI (CCRF-CEM leukemia) [µM] | GI50 (RPMI-8226 leukemia) [µM] | TGI (RPMI-8226 leukemia) [µM] | GI50 (HCC-2998 colon) [µM] | TGI (HCC-2998 colon) [µM] | GI50 (K-562 leukemia) [µM] |
| --- | --- | --- | --- | --- | --- | --- | --- | --- | --- | --- | --- | --- | --- | --- | --- | --- | --- | --- | --- | --- |
| CCN(CC)c1ccc2nc3c4ccccc4c(=NC(=O)c4ccccc4-c4c5ccc(N(CC)CC)cc5[o+]c5cc(N(CC)CC)ccc45)cc-3oc2c1 | > 100 | 1.26 | 2.68 | 1.83 | 5.08 | 4.69 | 19.4 | 10.3 | 31.5 | 2.19 | 10.6 | 5.06 | 12.4 | 2.1 | 13.4 | 0.722 | 4.2 | 1.62 | 3.82 |  |
| CCOc1cc(/C=N\NC(=O)N/N=C/c2ccc(O)c(OCC)c2)ccc1O | > 100 | 1.05 | 18 | 6.95 | > 100 | 5.69 | > 100 | > 29.1 | > 100 | 3.47 | > 100 | 10.3 | > 100 | 2.51 | > 100 | 4.79 | > 53 | 2.97 | > 100 | 0.441 |
| CNCCOc1nc2c3cnccc3cc(-c3cc(OC)c(OC)c(OC)c3)c2c2ccncc12 | 10.1 | 0.0288 | 0.144 | 0.01 | 0.101 | 0.033 | 0.623 | 0.0686 | 0.366 | 0.344 | 2.09 | 0.125 | 0.525 | < 0.013 | 1.1 | 0.0229 | 0.113 | 0.0454 | 0.213 | 0.0294 |
| c1cnc2c(c1)Nc1cnncc1S2 | > 100 |  | > 100 |  | > 100 |  | > 100 |  | > 100 |  | > 100 |  | > 100 |  | > 100 |  | > 100 |  | > 100 |  |
| C=C=[CH][Sn]([c]1ccccc1)([c]1ccccc1)[c]1ccccc1 | 3.3 | 1.56 | 3.09 | 1.91 | 4.42 | 1.69 | 3.66 | 1.65 | 3.1 | 2.19 | 5.94 | 1.71 | 3.34 | 0.79 | 3.4 | 1.4 | 4.36 | 1.76 | 3.36 | 0.722 |
| CC(C)N(C[C@H]1O[C@@H](n2cnc3c(N)ncnc32)[C@H](O)[C@@H]1O)C1CC(CCc2nc3ccc(C(C)(C)C)cc3[nH]2)C1 (stereo not given in full) | > 75.3 | > 95.1 | > 100 | > 100 | > 100 | > 100 | > 100 | > 100 | > 100 | > 100 | > 100 | > 39.3 | > 54.1 | > 49.3 | > 84.4 | 46 | > 100 | > 100 | > 100 | 33.4 |
| O=C(CC1(O)C(=O)Nc2c(Cl)ccc(Cl)c21)c1ccc(C2CC2)cc1 (stereo not given) |  | 1.37 | 13.8 | 2.09 | 19.8 | 2.98 | 23.4 | 11.9 | 29.1 | 0.406 | 14.7 | 2.51 | 21.9 | 0.843 | 20.1 | 0.87 | 16.5 | 1.85 | 18.2 | 0.152 |
| Nc1cccc2nsnc12 | > 85.4 |  | > 100 |  | > 100 |  | > 100 |  | > 100 |  | > 100 |  | > 100 |  | > 82.4 |  | > 86.9 |  | > 100 |  |
| C=C1CO[C@@H]2C[C@@H]1CC/C(C)=C/CC/C(C)=C/CC[C@@]2(C)O | > 46.2 | 18.5 | 34.5 | 15.4 | 33 | 20.1 | 50.5 | 18.4 | 36.2 | 18.5 | 36 | 16.8 | 38.3 | 14.7 | 33.9 | 10.9 | 33.9 | 18.3 | 36.4 | 15.1 |
| O=[N+]([O-])c1ccc(-c2ccccc2)c([As](=O)(O)O)c1 | > 100 | 40.6 | > 100 | 27.2 | > 100 | 9.85 | 39.2 | 17.5 | 38.5 | 22.6 | > 100 | 18 | 50.3 | 4.42 | 39.9 | 15.2 | 62.9 | 19.4 | 45.5 | 4.89 |
| CS(=O)(=O)c1nc(Cl)c(Cl)c(C#N)c1Cl | 20.6 |  | 15.5 |  | 40.4 |  | 21.9 |  | 5.91 |  | 6.19 |  | 4.75 |  | > 100 |  | 14.6 |  | 29.8 |  |
| O=C1c2ccccc2C(=O)c2c(NC(=O)c3ccc4c5c(ncnc35)-c3ccccc3C4=O)cccc21 | > 100 |  | > 100 |  | > 100 |  | > 100 |  | 47.6 |  | > 100 |  | > 100 |  |  |  | > 100 |  | > 100 |  |
| CCOC(=O)C(Cc1ccc(OC)cc1)C(=O)OCC | 11.8 | 3.65 | 15.3 | 7.01 | 33.7 | 3.73 | 15.2 | 8.22 | 26.2 | 3.77 | 19 |  |  | 3.18 | 28.2 | 3.05 | 14.3 | 4.81 | 12.4 | 1.83 |
| CS[C@@]1(C(=O)Nc2ccc3[nH]nc(-c4ccc(OC(C)C)nc4)c3c2)CCN(CC(=O)N2CC=C(c3ccc(-c4ncn(C)n4)cc3)CC2)C1 | > 100 | 1.03 | > 89.9 | 1.6 | > 100 | > 100 | > 100 | 0.237 | > 100 | 12.6 | > 100 | 0.0293 | 0.441 | 12.5 | > 100 | 2.21 | > 100 | 0.131 | > 100 | 2.24 |

From PubChem BioAssay (NCI)
